Experimental data as given in patent US11090319B2, “Therapeutic uses of pharmaceutical compositions comprising cyclic boronic acid ester derivatives” (Melinta Subsidiary Corp., priority 2010, dated 2021).

Tested on: strains expressing KPC alone or in combination with additional beta-lactamases
Experiment: microbe, parasite or virus in culture
Format: cell-based
[1] = Enterobacter cloacae ECL1058, KPC-3, SHV-11, TEM-1, Compound 5 0.31 mg/L
[2] = Enterobacter cloacae ECL1058, KPC-3, SHV-11, TEM-1, Compound 5 0.625 mg/L
[3] = Enterobacter cloacae ECL1059, KPC-3, SHV-12, TEM-1, Compound 5 0.31 mg/L
[4] = Enterobacter cloacae ECL1059, KPC-3, SHV-12, TEM-1, Compound 5 0.625 mg/L
[5] = Enterobacter cloacae ECL1059, KPC-3, SHV-12, TEM-1, Compound 5 5 mg/L
[6] = Enterobacter cloacae ECL1059, KPC-3, SHV-12, TEM-1, Compound 5 10 mg/L
[7] = Enterobacter cloacae ECL1059, KPC-3, SHV-12, TEM-1, Compound 5 […]
[8] = Escherichia coli EC1007, KPC-3, Compound 5 0.31 mg/L
[9] = Escherichia coli EC1007, KPC-3, Compound 5 0.625 mg/L
[10] = Escherichia coli EC1007, KPC-3, Compound 5 5 mg/L
[11] = Escherichia coli EC1007, KPC-3, Compound 5 10 mg/L
[12] = Escherichia coli EC1007, KPC-3, Compound 5 […]
[13] = Klebsiella oxytoca KX1017, KPC-2, OXA-2, SHV-30, Compound 5 0.31 mg/L
[14] = Klebsiella oxytoca KX1017, KPC-2, OXA-2, SHV-30, Compound 5 0.625 mg/L
[15] = Klebsiella oxytoca KX1017, KPC-2, OXA-2, SHV-30, Compound 5 5 mg/L
[16] = Klebsiella oxytoca KX1017, KPC-2, OXA-2, SHV-30, Compound 5 10 mg/L
[17] = Klebsiella oxytoca KX1018, KPC-2, SHV-40, OXY-1, Compound 5 0.31 mg/L
[18] = Klebsiella oxytoca KX1018, KPC-2, SHV-40, OXY-1, Compound 5 0.625 mg/L
[19] = Klebsiella oxytoca KX1018, KPC-2, SHV-40, OXY-1, Compound 5 […]
[20] = Klebsiella oxytoca KX1019, KPC-2 OXA-2, Compound 5 0.625 mg/L
[21] = Klebsiella pneumoniae KP 1004, KPC-2, Compound 5 0.31 mg/L
[22] = Klebsiella pneumoniae KP 1004, KPC-2, Compound 5 0.625 mg/L
[23] = Klebsiella pneumoniae KP 1004, KPC-2, Compound 5 5 mg/L

O=C(O)C[C@@H]1CC[C@H](NC(=O)Cc2cccs2)B(O)O1 [Compound 5, 2-((3R,6S)-2-hydroxy-3-(2-(thiophen-2-yl)acetamido)-1,2-oxaborinan-6-yl)acetic acid]
potentiation of carbapenems: significantly potentiate multiple carbapenems
MIC of Doripenem [1]: Y (MIC of 0.5 mg/L to 4 mg/L)
MIC of Ertapenem [1]: Z (MIC of greater than 4 mg/L)
MIC of Doripenem [2]: Y (MIC of 0.5 mg/L to 4 mg/L)
MIC of Ertapenem [2]: Z (MIC of greater than 4 mg/L)
MIC of Ertapenem (Enterobacter cloacae ECL1058, KPC-3, SHV-11, TEM-1, Compound 5 5 mg/L): X (MIC of less than 0.5 mg/L)
MIC of Ertapenem (Enterobacter cloacae ECL1058, KPC-3, SHV-11, TEM-1, Compound 5 10 mg/L): X (MIC of less than 0.5 mg/L)
MIC of Doripenem (Enterobacter cloacae ECL1058, KPC-3, SHV-11, TEM-1, Compound 5 […]): Y (MIC of 0.5 mg/L to 4 mg/L)
MIC of Doripenem [3]: X (MIC of less than 0.5 mg/L)
MIC of Ertapenem [3]: X (MIC of less than 0.5 mg/L)
MIC of Doripenem [4]: X (MIC of less than 0.5 mg/L)
MIC of Ertapenem [4]: X (MIC of less than 0.5 mg/L)
MIC of Biapenem [5]: X (MIC of less than 0.5 mg/L)
MIC of Doripenem [5]: X (MIC of less than 0.5 mg/L)
MIC of Ertapenem [5]: X (MIC of less than 0.5 mg/L)
MIC of Biapenem [6]: X (MIC of less than 0.5 mg/L)
MIC of Doripenem [6]: X (MIC of less than 0.5 mg/L)
MIC of Ertapenem [6]: X (MIC of less than 0.5 mg/L)
MIC of Biapenem [7]: X (MIC of less than 0.5 mg/L)
MIC of Doripenem [7]: X (MIC of less than 0.5 mg/L)
MIC of Ertapenem [7]: X (MIC of less than 0.5 mg/L)
MIC of Doripenem [8]: X (MIC of less than 0.5 mg/L)
MIC of Ertapenem [8]: X (MIC of less than 0.5 mg/L)
MIC of Doripenem [9]: X (MIC of less than 0.5 mg/L)
MIC of Ertapenem [9]: X (MIC of less than 0.5 mg/L)
MIC of Doripenem [10]: X (MIC of less than 0.5 mg/L)
MIC of Ertapenem [10]: X (MIC of less than 0.5 mg/L)
MIC of Biapenem [11]: X (MIC of less than 0.5 mg/L)
MIC of Doripenem [11]: X (MIC of less than 0.5 mg/L)
MIC of Ertapenem [11]: X (MIC of less than 0.5 mg/L)
MIC of Doripenem [12]: X (MIC of less than 0.5 mg/L)
MIC of Ertapenem [12]: X (MIC of less than 0.5 mg/L)
MIC of Biapenem [13]: Y (MIC of 0.5 mg/L to 4 mg/L)
MIC of Doripenem [13]: Y (MIC of 0.5 mg/L to 4 mg/L)
MIC of Ertapenem [13]: Y (MIC of 0.5 mg/L to 4 mg/L)
MIC of Doripenem [14]: Y (MIC of 0.5 mg/L to 4 mg/L)
MIC of Ertapenem [14]: Y (MIC of 0.5 mg/L to 4 mg/L)
MIC of Biapenem [15]: X (MIC of less than 0.5 mg/L)
MIC of Doripenem [15]: X (MIC of less than 0.5 mg/L)
MIC of Ertapenem [15]: X (MIC of less than 0.5 mg/L)
MIC of Biapenem [16]: X (MIC of less than 0.5 mg/L)
MIC of Doripenem [16]: X (MIC of less than 0.5 mg/L)
MIC of Ertapenem [16]: X (MIC of less than 0.5 mg/L)
MIC of Biapenem [17]: X (MIC of less than 0.5 mg/L)
MIC of Doripenem [17]: X (MIC of less than 0.5 mg/L)
MIC of Ertapenem [17]: X (MIC of less than 0.5 mg/L)
MIC of Biapenem [18]: X (MIC of less than 0.5 mg/L)
MIC of Doripenem [18]: X (MIC of less than 0.5 mg/L)
MIC of Ertapenem [18]: X (MIC of less than 0.5 mg/L)
MIC of Biapenem [19]: X (MIC of less than 0.5 mg/L)
MIC of Doripenem [19]: X (MIC of less than 0.5 mg/L)
MIC of Ertapenem [19]: X (MIC of less than 0.5 mg/L)
MIC of Ertapenem (Klebsiella oxytoca KX1019, KPC-2 OXA-2, Compound 5 0.31 mg/L): Y (MIC of 0.5 mg/L to 4 mg/L)
MIC of Doripenem [20]: Y (MIC of 0.5 mg/L to 4 mg/L)
MIC of Ertapenem [20]: Y (MIC of 0.5 mg/L to 4 mg/L)
MIC of Ertapenem (Klebsiella oxytoca KX1019, KPC-2 OXA-2, Compound 5 5 mg/L): X (MIC of less than 0.5 mg/L)
MIC of Ertapenem (Klebsiella oxytoca KX1019, KPC-2 OXA-2, Compound 5 10 mg/L): X (MIC of less than 0.5 mg/L)
MIC of Ertapenem (Klebsiella oxytoca KX1019, KPC-2 OXA-2, Compound 5 […]): Y (MIC of 0.5 mg/L to 4 mg/L)
MIC of Biapenem [21]: X (MIC of less than 0.5 mg/L)
MIC of Doripenem [21]: X (MIC of less than 0.5 mg/L)
MIC of Ertapenem [21]: Y (MIC of 0.5 mg/L to 4 mg/L)
MIC of Biapenem [22]: X (MIC of less than 0.5 mg/L)
MIC of Doripenem [22]: X (MIC of less than 0.5 mg/L)
MIC of Ertapenem [22]: Y (MIC of 0.5 mg/L to 4 mg/L)
MIC of Biapenem [23]: X (MIC of less than 0.5 mg/L)
MIC of Doripenem [23]: X (MIC of less than 0.5 mg/L)
